Measured values as given in US20260174724A1, “COMPOSITION FOR PREVENTING AND/OR IMPROVING BRAIN DYSFUNCTION” (THE INSTITUTE OF BIOACTIVE PEPTIDES, priority 2024, published 2026).

Key:
[1] = Bioavailability experiment: DHM concentration in plasma after gavage, LC-MS/MS; type: in vivo; details: male SD rats, DHM 100 mg/kg
Experimental: Experimental subject grouping: 24 male SD rats, weighing between 200-220 g, were randomly divided into four groups.
• Group A (control group): DHM was administered alone at a dose of 100 mg/kg. • Group B: DHM (100 mg/kg) was co-administered with L-theanine (10 mg/kg). • Group C: DHM (100 mg/kg) was co-administered with taurine (10 mg/kg). • Group D: DHM (100 mg/kg), L-theanine (10 mg/kg), and taurine (10 mg/kg) were co-administered.
The drug was mixed with 3 mL of 0.5% CMC-Na solution and administered by gavage.
At 0.1, 0.5, 1, 1.5, 2, 2.5, 3, 4, 6, 8, and 12 h after administration, 200 μL of blood samples were collected through the tail vein and placed in heparinized EP tubes.
The blood samples were centrifuged at 5000 rpm for 15 min at 4° C., and plasma was collected and stored at −20° C.
Before analysis, 30 μL of plasma sample was taken, 30 μL of internal standard (rutin) solution and 140 μL of 1% formic acid-acetonitrile solution were added, vortex oscillated for 1 min, centrifuged at 12000 rpm for 5 min, and 150 μL of supernatant was taken for LC-MS/MS analysis. Analysis purpose:
The concentration of DHM in plasma was determined at different time points to evaluate the effect of the composition on the bioavailability of DHM.

[2] = simulated gi fluid, 4 h, 1 mg/mL
Experimental: • Solutions A-D and A1-D1 were prepared according to the following components and concentrations, with a volume of 10 mL each. The mixed solution was placed in a water bath at 37° C., and the content of the remaining DHM was determined by HPLC at different time intervals. • Solution A: SIF+DHM (1 mg/mL); • Solution B: SIF+DHM (1 mg/mL)+taurine (0.3 mg/mL) • Solution C: SIF+DHM (1 mg/mL)+L-theanine (0.4 mg/mL); • Solution D: SIF+DHM (1 mg/mL)+taurine (0.1 mg/mL)+L-theanine (0.1 mg/mL) • Solution A1: SIF+DHM (1 mg/mL)+Fe^3+ (50 μmol/L); • Solution B1: SIF+DHM (1 mg/mL)+taurine (0.3 mg/mL)+Fe^3+ (50 μmol/L); • Solution C1: SIF+DHM (1 mg/mL)+L-theanine (0.4 mg/mL)+Fe^3+ (50 μmol/L); • Solution D1: SIF+DHM (1 mg/mL)+taurine (0.1 mg/mL)+L-theanine (0.1 mg/mL)+Fe^3+ (50 μmol/L).

[3] = tested on: intracerebral hemorrhage (ICH) model of C57BL/6N mice; test: Cerebral hematoma experiment: collagenase-induced ICH model, hematoma volume by ImageJ; type: in vivo; details: Day 1 after modeling; gavage 7 days before collagenase; FIG. 3
Excerpt: This experiment aims to evaluate the effect of different compositions on the hematoma volume in the intracerebral hemorrhage (ICH) model of C57BL/6N mice. A total of 72 male C57BL/6N mice, aged 8-10 weeks, were randomly divided into 6 groups and treated with gavage for 7 days. Subsequently, except for the sham operation group (CON), the remaining groups were induced the ICH model by collagenase method. […]
On the 1st and 3rd day after modeling, 6 mice were randomly selected from each group for decapitation and brain sampling. The brain tissue was cut into slices on ice, and the hematoma volume was calculated using ImageJ software.

CL [1] [L/min/kg]	AUC(0-inf) ([1]; rat, po) [ng·h/mL]	AUC(0-t) ([1]; rat, po) [ng·h/mL]	Cmax ([1]; rat, po) [ng/mL]	Tmax ([1]; rat, po) [min]	half-life ([1]; rat, po) [min]	remaining amount of DHM [2]	Compound	hematoma volume compared with the MOD group [3]
8.62 ± 1.04	194	172	118 ± 13.7	49.8 ± 67.2	115 ± 40.2	below 50%	O=C1c2c(O)cc(O)cc2O[C@H](c2cc(O)c(O)c(O)c2)[C@H]1O [DHM, dihydromyricetin]	
							O=C1c2c(O)cc(O)cc2O[C@H](c2cc(O)c(O)c(O)c2)[C@H]1O [G1 group, dihydromyricetin]	decreased
